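Step 1: Grow cells in 96-well plates. Step 2: Expose to compound for 48 hours at 5 concentrations. Step 3: Interpolate endpoints linearly; if unreached, use highest concentration. GI50 = concentration required for 50% inhibition of growth. TGI denotes the concentration required for complete inhibition of growth.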

Some test systems named below: M19-MEL melanoma; DMS 273 small cell lung; LXFL 529 NSCLC; RXF-631 renal; MDA-N; MDA-MB-435; MDA-MB-231 breast; NCI/ADR-RES ovarian.
Assay in all cases: NCI-60 cell line screen, 48 h

On to `N[C@H](C(=O)O)[C@H](Cl)CC(=O)O`, for which the TGI in the experiment on M19-MEL melanoma, in the experiment on DMS 273 small cell lung and with LXFL 529 NSCLC was above 100 µM each time.

Take `O=C(O)c1cc(=O)c2[nH]c3ccccc3c2s1`: the TGI with M19-MEL melanoma, in the experiment on RXF-631 renal and in the experiment with LXFL 529 NSCLC was above 100 µM each time.

On to `O=c1cc(-c2ccccc2)c2cc3c(=O)ccoc3cc2o1`, for which the TGI in the experiment with M19-MEL melanoma and in the experiment with DMS 273 small cell lung was above 100 µM in each case.

Regarding `Cc1cc(=O)oc2cc3c(cc12)Oc1ccccc1O3`, the TGI in the experiment with M19-MEL melanoma, with DMS 273 small cell lung, with RXF-631 renal and in the experiment on LXFL 529 NSCLC was above 100 µM throughout.

As to `NNC(=O)CCC(=O)NC1C2CC3CC(C2)CC1C3` (stereo not given), the TGI in the experiment on M19-MEL melanoma, in the experiment with DMS 273 small cell lung and in the experiment with LXFL 529 NSCLC was above 100 µM each time.

On to `O=C(CN1CCN(c2ccccc2)CC1)N1CCc2c([nH]c3ccccc23)C1c1cccnc1` (stereo not given), for which the TGI in the experiment on M19-MEL melanoma was above 100 µM; in the experiment on DMS 273 small cell lung, above 100 µM; in the experiment on RXF-631 renal it was above 94.5 µM; in the experiment on LXFL 529 NSCLC it was above 100 µM.

Regarding `COc1cccc(C2c3cc4c(cc3OC(O)(CO)C2C(=O)O)OCO4)c1` (stereo not given) (tested in a mixture with another compound), the TGI in the experiment on M19-MEL melanoma, with DMS 273 small cell lung, with RXF-631 renal and with LXFL 529 NSCLC was above 100 µM each time.

As for `Cc1ccc(NC(=O)/C(=N\Nc2ccc([N+](=O)[O-])cc2[N+](=O)[O-])C2C(=O)NC(=O)NC2=O)cc1`, the TGI in the experiment on M19-MEL melanoma, with RXF-631 renal and in the experiment on LXFL 529 NSCLC was above 100 µM each time.

In the case of `N#CC(C(=O)C(=O)NCCCNC(=O)C(=O)C(C#N)c1ccccc1)c1ccccc1` (stereo not given), the TGI with M19-MEL melanoma, with DMS 273 small cell lung and with LXFL 529 NSCLC was above 100 µM throughout.

In the case of `CC1S(=O)(=O)OCCOS1(=O)=O`, the TGI with M19-MEL melanoma, in the experiment with DMS 273 small cell lung, in the experiment with RXF-631 renal and with LXFL 529 NSCLC was above 100 µM throughout.

In the case of `CCOC(=O)NN1C(=O)C(=P(c2ccccc2)(c2ccccc2)c2ccccc2)C(C(=O)OCC)=C1C`, the TGI with M19-MEL melanoma, in the experiment with DMS 273 small cell lung, in the experiment on RXF-631 renal and in the experiment with LXFL 529 NSCLC was above 100 µM each time.

On to `COc1cccc(C(=O)C2C(=O)N(C)CCc3ccccc32)c1OC` (stereo not given), for which the TGI in the experiment with M19-MEL melanoma, in the experiment on DMS 273 small cell lung, with RXF-631 renal and with LXFL 529 NSCLC was above 100 µM in each case.

For the compound `COc1ccc(O)c(C#N)c1C#N`, the TGI with M19-MEL melanoma, in the experiment on DMS 273 small cell lung and in the experiment with LXFL 529 NSCLC was above 100 µM throughout.

`COc1cc(/C=C/C(=O)c2sc(Nc3ccccc3)nc2C)ccc1O`: the TGI in the experiment with M19-MEL melanoma and in the experiment with DMS 273 small cell lung was above 100 µM throughout.

In the case of `Cc1cccc(C(C)C)c1NC(=O)C(=O)CC(=O)c1c(C)n([O-])c2ccccc2[n+]1=O`, the TGI is 50.6 µM in the experiment on M19-MEL melanoma, 99.2 µM in the experiment on DMS 273 small cell lung, 67.4 µM with RXF-631 renal and above 100 µM in the experiment with LXFL 529 NSCLC.

Consider `CCCCCCCCCCCCCC(=O)CBr`, for which the TGI stood at 25 µM with MDA-N; 23.5 µM in the experiment with M19-MEL melanoma; 32 µM in the experiment with MDA-MB-435; 33.7 µM with RXF-631 renal; 34.2 µM with MDA-MB-231 breast; 9.13 µM with LXFL 529 NSCLC.

Take `COc1nc2nccc-2c2occn12`: the TGI in the experiment with M19-MEL melanoma, with DMS 273 small cell lung, in the experiment on RXF-631 renal and in the experiment on LXFL 529 NSCLC was above 100 µM in each case.

Consider `COc1cc([C@@H]2c3cc4c(cc3[C@@H](NC(=O)c3ccccc3)C3COC(=O)[C@@H]32)OCO4)cc(OC)c1O` (stereo not given in full), for which the results for the TGI with M19-MEL melanoma, with DMS 273 small cell lung and in the experiment with LXFL 529 NSCLC were 24.7 µM, 13.7 µM and above 100 µM, respectively.

For `CCC12CCCC(=O)N1C(CO)C(c1ccccc1)O2` (stereo not given), the TGI in the experiment with M19-MEL melanoma and with DMS 273 small cell lung was above 100 µM each time.

For `CC1=C(O)C(=O)C2C(=O)C1C(C)C2c1ccc(Cl)cc1` (stereo not given), the TGI in the experiment with M19-MEL melanoma, in the experiment on DMS 273 small cell lung, with RXF-631 renal and with LXFL 529 NSCLC was above 100 µM throughout.

For `CC(=O)n1c2ccccc2c2nc3nc(Oc4ccc(C)cc4)c4ccccc4c3cc21`, the TGI in the experiment with M19-MEL melanoma, in the experiment with DMS 273 small cell lung and with LXFL 529 NSCLC was above 100 µM throughout.

As to `CC1C(=O)C(C)C(c2ccccc2)N(N=O)C1c1ccccc1` (stereo not given), the TGI in the experiment on MDA-N was 306 µM; with NCI/ADR-RES ovarian it was 867 µM; in the experiment with M19-MEL melanoma, above 1000 µM; in the experiment on MDA-MB-435 it was 346 µM; with DMS 273 small cell lung, above 1000 µM; in the experiment on MDA-MB-231 breast, 250 µM. For the same compound, the TGI with LXFL 529 NSCLC was above 1000 µM. Besides, the GI50 with M19-MEL melanoma is above 1000 µM.

For `CCCCCCCCCc1cc(=O)c2ccc(O)cc2o1`, the TGI in the experiment on M19-MEL melanoma, in the experiment with DMS 273 small cell lung, with RXF-631 renal and in the experiment with LXFL 529 NSCLC was above 100 µM in each case.

Take `CCOC(=O)C(=O)Nc1c(C)cccc1C`: the TGI with M19-MEL melanoma, with DMS 273 small cell lung and in the experiment with LXFL 529 NSCLC was above 100 µM in each case.

Turning to `COc1ccc2oc3cccc(NCCN(C)C)c3c(=O)c2c1`, the TGI amounted to 29.9 µM with M19-MEL melanoma, 25.3 µM in the experiment with DMS 273 small cell lung, 32.4 µM with RXF-631 renal and 26 µM in the experiment with LXFL 529 NSCLC.

Regarding `CC/C=C\C/C=C\C/C=C\CCCCCCCC(=O)OCC`, the TGI in the experiment with M19-MEL melanoma and in the experiment with LXFL 529 NSCLC was above 100 µM in each case.

In the case of `CSc1nc2c(nc(N)n2C2OCC(O)C(O)C2O)c(=O)n1C` (stereo not given), the TGI in the experiment with M19-MEL melanoma, with RXF-631 renal and in the experiment with LXFL 529 NSCLC was above 100 µM each time.

Consider `CC(C)CC1=[N+]=C(NC#N)N=C(CCC(=O)Nc2ccccc2[N+](=O)[O-])C1`, for which the TGI with M19-MEL melanoma and in the experiment with LXFL 529 NSCLC was above 100 µM throughout.

For `O=C1C2=C(c3ccccc31)C(c1ccccc1)NC(=S)N2` (stereo not given), the TGI in the experiment with M19-MEL melanoma, in the experiment on DMS 273 small cell lung, in the experiment on RXF-631 renal and with LXFL 529 NSCLC was above 100 µM each time.

Regarding `S=c1[nH]c2ccc(Br)cc2c(=S)n1-c1ccccc1`, the values for the TGI in the experiment with M19-MEL melanoma, in the experiment on DMS 273 small cell lung and in the experiment with RXF-631 renal were 60.7 µM, 60.7 µM and above 100 µM, respectively.

Turning to `CCCCCCCCCCCCCCCC(=O)OCC1OC(n2c(O)c(N=NC(N)=S)c3ccc([N+](=O)[O-])cc32)C(OC(C)=O)C1OC(C)=O` (stereo not given), the TGI in the experiment on M19-MEL melanoma, in the experiment with DMS 273 small cell lung, in the experiment on RXF-631 renal and in the experiment on LXFL 529 NSCLC was above 100 µM throughout.

`CC(C)NC(=O)OCCS(=O)c1c(Cl)c(Cl)nn1C` (stereo not given): the TGI in the experiment with MDA-N was above 100 µM; in the experiment with NCI/ADR-RES ovarian, above 100 µM; in the experiment with MDA-MB-435 it was 56.3 µM; in the experiment with MDA-MB-231 breast, 70.7 µM.

As to `CC(=O)Oc1ccc(O)c(O)c1C/C=C(\C)CC/C=C(\C)CC/C=C(\C)CCC=C(C)C`, the TGI in the experiment with M19-MEL melanoma stood at 1.81 µM; with DMS 273 small cell lung, 0.817 µM; with LXFL 529 NSCLC, 1.05 µM.

As to `CC(=O)c1cc([N+](=O)[O-])ccc1OCC(=O)O`, the TGI in the experiment with M19-MEL melanoma, with DMS 273 small cell lung, in the experiment with RXF-631 renal and in the experiment on LXFL 529 NSCLC was above 100 µM each time.

Regarding `COc1ccc(NC(=O)c2cc(OC)c(OC)c(OC)c2)cc1`, the TGI in the experiment with M19-MEL melanoma, with DMS 273 small cell lung, with RXF-631 renal and in the experiment on LXFL 529 NSCLC was above 100 µM each time.

In the case of `OCCCCCCOc1ccc(-c2cc(-c3ccccn3)nc(-c3ccccn3)c2)cc1`, the TGI with M19-MEL melanoma is 1.25 µM; in the experiment with MDA-MB-435, above 100 µM; with DMS 273 small cell lung, 0.978 µM; in the experiment on LXFL 529 NSCLC, 4.97 µM.

On to `N#C/C(=C\c1cccc(O)c1)C(N)=O`, for which the TGI in the experiment with M19-MEL melanoma, in the experiment on DMS 273 small cell lung, in the experiment on RXF-631 renal and in the experiment on LXFL 529 NSCLC was above 100 µM in each case.

Consider `Cn1nc(-c2ccccc2)c(C(=O)/C=C/c2ccccc2)c(N2CCOCC2)c1=O`, for which the TGI in the experiment on M19-MEL melanoma is 61.2 µM; in the experiment with DMS 273 small cell lung, 51.4 µM; with LXFL 529 NSCLC it was 34 µM.

These data come from PubChem BioAssay (NCI).
